We go through eleven molecules from US10538498B2, “1,3,4-oxadiazole sulfonamide derivative compounds as histone deacetylase 6 inhibitor, and the pharmaceutical composition comprising the same” (Chong Kun Dang Pharmaceutical Corp., priority 2015, dated 2020).

For the assay, the target named is T1, human recombinant HDAC6 (Homo sapiens, UniProt Q9UBN7).
T1 construct: purchased Calbiochem 382180
T1 sequence (Q9UBN7 1-1215): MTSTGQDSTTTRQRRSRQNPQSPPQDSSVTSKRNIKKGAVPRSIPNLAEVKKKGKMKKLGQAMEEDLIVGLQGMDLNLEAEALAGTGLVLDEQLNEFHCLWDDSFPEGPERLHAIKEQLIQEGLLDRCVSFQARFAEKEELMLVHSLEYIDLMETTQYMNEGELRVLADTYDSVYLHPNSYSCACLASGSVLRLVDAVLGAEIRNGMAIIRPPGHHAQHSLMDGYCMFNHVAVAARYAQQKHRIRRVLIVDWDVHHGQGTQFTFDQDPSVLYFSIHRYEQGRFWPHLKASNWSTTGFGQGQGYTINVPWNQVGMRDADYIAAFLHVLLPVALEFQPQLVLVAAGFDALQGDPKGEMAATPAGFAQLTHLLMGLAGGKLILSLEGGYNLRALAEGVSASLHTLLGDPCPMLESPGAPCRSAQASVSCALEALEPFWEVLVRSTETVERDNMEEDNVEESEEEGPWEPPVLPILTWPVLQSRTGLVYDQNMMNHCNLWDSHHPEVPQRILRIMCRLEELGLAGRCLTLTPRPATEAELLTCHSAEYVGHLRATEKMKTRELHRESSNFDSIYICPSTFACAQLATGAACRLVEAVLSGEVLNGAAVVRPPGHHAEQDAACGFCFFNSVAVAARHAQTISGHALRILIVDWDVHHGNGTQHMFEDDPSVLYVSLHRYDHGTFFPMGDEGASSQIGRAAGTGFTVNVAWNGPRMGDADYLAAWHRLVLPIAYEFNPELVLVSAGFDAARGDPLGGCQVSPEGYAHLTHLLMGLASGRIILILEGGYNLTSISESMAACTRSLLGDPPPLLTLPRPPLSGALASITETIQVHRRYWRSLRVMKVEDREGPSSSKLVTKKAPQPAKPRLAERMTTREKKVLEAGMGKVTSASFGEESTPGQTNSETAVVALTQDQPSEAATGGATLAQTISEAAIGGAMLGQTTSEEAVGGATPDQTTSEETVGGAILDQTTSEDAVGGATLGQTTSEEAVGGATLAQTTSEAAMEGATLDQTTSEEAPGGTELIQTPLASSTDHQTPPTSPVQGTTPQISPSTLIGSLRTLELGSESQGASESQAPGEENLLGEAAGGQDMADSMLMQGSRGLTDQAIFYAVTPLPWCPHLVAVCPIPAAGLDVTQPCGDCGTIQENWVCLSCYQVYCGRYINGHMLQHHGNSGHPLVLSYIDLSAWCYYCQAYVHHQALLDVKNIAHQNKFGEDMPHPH
Kind of assay: HDAC6 enzyme activity inhibition assay (HDAC Fluorimetric Drug Discovery Kit). The class given is biochemical. To be noted: for HDAC6 selectivity (fold): HDAC1 vs HDAC6; for IC50: same protocol as the HDAC1 enzyme activity test. A digest of the protocol: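 Human recombinant enzyme, 0.3 μg, incubated with 10 μM Fluor de Lys-SIRT1 substrate and 5-fold compound dilutions at 30° C for 60 min. Developer II added for 30 min, then fluorescence read (Ex 360/Em 460). IC50 values derived from the fluorescence data.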

In the case of `COc1ccccc1N(Cc1ccc(-c2nnc(C(F)(F)F)o2)cc1F)S(C)(=O)=O` [Compound 11250, N-(2-fluoro-4-(5-(trifluoromethyl)-1,3,4-oxadiazol-2-yl)benzyl)-N-(2-methoxyphenyl)methanesulfonamide], the “HDAC6 selectivity (fold)” value is listed as 1000 fold and the IC50 (usually the concentration needed to halve the response being measured) was found to be 100 nM.

Take `CS(=O)(=O)N(Cc1ccc(-c2nnc(C(F)F)o2)cn1)C1CCCCC1` [Compound 11351, N-cyclohexyl-N-((5-(5-(difluoromethyl)-1,3,4-oxadiazol-2-yl)pyridin-2-yl)methyl)methanesulfonamide]: the “HDAC6 selectivity (fold)” value worked out at 1449 fold and the IC50 is 69 nM.

With `CS(=O)(=O)N(Cc1ccc(-c2nnc(C(F)F)o2)cc1F)c1cccnc1` [Compound 11120, N-(4-(5-(difluoromethyl)-1,3,4-oxadiazol-2-yl)-2-fluorobenzyl)-N-(pyridin-3-yl)methanesulfonamide], the “HDAC6 selectivity (fold)” value came to 2631 fold and the IC50 was determined as 38 nM.

Take `O=S(=O)(CCN1CCCN(Cc2ccccc2)CC1)N(Cc1ccc(-c2nnc(C(F)F)o2)cc1)c1ccccc1` [Compound 11760, 2-(4-benzyl-1,4-diazepan-1-yl)-N-(4-(5-(difluoromethyl)-1,3,4-oxadiazol-2-yl)benzyl)-N-phenylethane-1-sulfonamide]: the “HDAC6 selectivity (fold)” value worked out at 508 fold and the IC50 came out at 197 nM.

Regarding `CC(C)n1ncc2ccc(N(Cc3ccc(-c4nnc(C(F)F)o4)cc3)S(C)(=O)=O)cc21` [Compound 11742, N-(4-(5-(difluoromethyl)-1,3,4-oxadiazol-2-yl)benzyl)-N-(1-isopropyl-1H-indazol-6-yl)methanesulfonamide], the “HDAC6 selectivity (fold)” value is recorded as 418 fold and the IC50 came out at 239 nM.

With `CCN(CC)CCS(=O)(=O)N(Cc1ccc(-c2nnc(C(F)F)o2)cc1)c1ccccc1` [Compound 11798, 2-(diethylamino)-N-(4-(5-(difluoromethyl)-1,3,4-oxadiazol-2-yl)benzyl)-N-phenylethane-1-sulfonamide], the “HDAC6 selectivity (fold)” value worked out at 538 fold and the IC50 turned out to be 186 nM.

For the molecule `CS(=O)(=O)N(Cc1ccc(-c2nnc(C(F)(F)F)o2)cc1F)c1ccc(Cl)cc1` [Compound 11271, N-(4-chlorophenyl)-N-(2-fluoro-4-(5-(trifluoromethyl)-1,3,4-oxadiazol-2-yl)benzyl)methanesulfonamide], the “HDAC6 selectivity (fold)” value is reported as 775 fold and the IC50 amounted to 129 nM.

As for `CCS(=O)(=O)N(Cc1ccc(-c2nnc(C(F)F)o2)cn1)c1cccc2c1CN(C)C2` [Compound 11712, N-((5-(5-(difluoromethyl)-1,3,4-oxadiazol-2-yl)pyridin-2-yl)methyl)-N-(2-methylisoindolin-4-yl)ethanesulfonamide], the “HDAC6 selectivity (fold)” value is 264 fold and the IC50 amounted to 378 nM.

For the molecule `O=S(=O)(C1CCN(C2CC(O)C2)CC1)N(Cc1ccc(-c2nnc(C(F)F)o2)cn1)c1ccccc1` (stereo not shown) [Compound 11791, N-((5-(5-(difluoromethyl)-1,3,4-oxadiazol-2-yl)pyridin-2-yl)methyl)-1-(3-hydroxycyclobutyl)-N-phenylpiperidine-4-sulfonamide], the “HDAC6 selectivity (fold)” value was found to be 2114 fold and the 50% inhibitory concentration (IC50) was 47.3 nM.

As to `N#CC1CCN(CCS(=O)(=O)N(Cc2ccc(-c3nnc(C(F)F)o3)cc2)c2ccccc2)CC1` [Compound 11818, 2-(4-cyanopiperidin-1-yl)-N-(4-(5-(difluoromethyl)-1,3,4-oxadiazol-2-yl)benzyl)-N-phenylethane-1-sulfonamide], the “HDAC6 selectivity (fold)” value turned out to be 1647 fold and the IC50 turned out to be 60.7 nM.

`O=S(=O)(C1CCN(C2CC(O)C2)CC1)N(Cc1ccc(-c2nnc(C(F)F)o2)cc1)c1cccc(Cl)c1` (stereo not shown) [Compound 11793, N-(3-chlorophenyl)-N-(4-(5-(difluoromethyl)-1,3,4-oxadiazol-2-yl)benzyl)-1-(3-hydroxycyclobutyl)piperidine-4-sulfonamide]: the “HDAC6 selectivity (fold)” value is reported as 1718 fold and the IC50 amounted to 58.2 nM.
